This passage reports IC50 results from article PMC7132963, “NTP42, a novel antagonist of the thromboxane receptor, attenuates experimentally induced pulmonary arterial hypertension” (BMC Pulmonary Medicine, 2020).

For the assay, the target named is T1, TPβ isoform of the human T Prostanoid receptor (thromboxane receptor, TP) (Homo sapiens, UniProt P21731).
T1 construct: gene TBXA2R; TPβ isoform, stably over-expressed in HEK 293 cells (HEK.TPβ line)
T1 sequence (P21731 1-328 limits assumed): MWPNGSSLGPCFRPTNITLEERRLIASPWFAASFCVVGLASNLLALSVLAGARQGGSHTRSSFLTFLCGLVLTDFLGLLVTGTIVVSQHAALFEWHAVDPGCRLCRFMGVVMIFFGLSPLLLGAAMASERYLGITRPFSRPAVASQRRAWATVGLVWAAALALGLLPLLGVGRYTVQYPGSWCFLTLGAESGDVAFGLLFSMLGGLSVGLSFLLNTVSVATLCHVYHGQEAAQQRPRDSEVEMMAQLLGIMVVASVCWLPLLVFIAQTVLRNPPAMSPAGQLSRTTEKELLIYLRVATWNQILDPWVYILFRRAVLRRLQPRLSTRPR
The assay can be described thus: antagonism of U46619-stimulated intracellular calcium mobilization in HEK.TPβ cells (also vs 8-iso-PGF2α, IC50 […]). Format: cell-based.

In the case of `CC(C)(C)NC(=O)NS(=O)(=O)c1cc(C#N)ccc1Oc1cccc(-c2ccc(OC(F)F)cc2)c1` [NTP42], the 50% inhibitory concentration (IC50) is 8.86 ± 3.07 nM.
